In general, clearance refers to the rate of elimination divided by the concentration. Usually bioavailability stands for the share of a dose that reaches the circulation, judged against a reference dose that is usually intravenous. By Cmax is commonly meant the highest concentration seen after dosing. The term Tmax denotes the time from dosing to the highest level. For orientation: AUC means concentration integrated over time. As usually defined, the IC50 is the concentration that inhibits the measured activity by half.

Consider 2 compounds from US20210379040A1, “COMBINATION TREATMENT OF LIVER DISORDERS” (Terns Pharmaceuticals, Inc., priority 2020, published 2021).

In series [1] the test system is dog hepatocytes. Nature of the series: In vitro metabolic stability in cryopreserved hepatocytes (dog). Format: in vitro ADME. To be noted: Beagle Dog. Here is the method: (§1) In vitro half-life values were determined and scaled to predict hepatic clearance (CLpred) and hepatic extraction using the well-stirred liver model with no correction for plasma protein as described in Obach et al., The Prediction of Human Pharmacokinetic Parameters from Preclinical and In Vitro Metabolism Data, J. of Pharmacology and Experimental Therapeutics, vol. 283, no. 1, pp. 46-58 (1997).

Series [2] relates to monkey hepatocytes. Nature of the series: In vitro metabolic stability in cryopreserved hepatocytes (monkey). It counts as in vitro ADME. The settings on record: Cynomolgus Monkey. Here is the method: as §1
Series [3] is described as follows: Pharmacokinetics assay, rat. It counts as in vivo, Sprague-Dawley (SD) rats. To be noted: plasma, Sprague-Dawley Rat. From the text: Results are shown in FIG. 1A (IV administration) and FIG. 1B (oral administration), and in Table 2. […] Smaller Vdss in monkeys is correlated with higher plasma protein binding.
Series [4] in a line: Tissue distribution after 2 mg/kg intravenous infusion. It counts as in vivo. The settings on record: SD rats, with 100 μM rifampin. Here is the method:
The tested compounds were administered to SD rats (n=3 per compound) by way of 30 minute intravenous infusion at 2 mg/kg. Blood, liver, kidney, and lung tissue samples were collected from the rats to determine a tissue/plasma ratio.

Series [5] in a line: Metabolism and excretion of radiolabeled (14C) compound. It counts as in vivo. To be noted: SD rats, bile duct intact or cannulated, orally 5 mg/kg or intravenously 2 mg/kg. Here is the method:
Blood, bile, feces, and urine samples were collected from each rat for up to 168 hours.

Series [6] can be described thus: PK/PD profile, single oral dose. It counts as in vivo. The settings on record: cynomolgus monkey, plasma, cynomolgus monkeys; for AUC(0-t): read-out: AUC0-24. Here is the method: Pharmacokinetics data is presented in Table 3, and were determined by non-compartmental analysis.
Series [7] can be described thus: PK/PD profile, 1 mg/kg oral for 7 consecutive days. The settings on record: cynomolgus monkeys; for Cmax / Tmax / AUC(0-t): cynomolgus monkey, plasma, po, 1 mg/kg, oral 1 mg/kg daily; for AUC(0-t): read-out: AUC0-24. It counts as in vivo.
Series [8] can be described thus: Clinical study, First Study (14 days, healthy volunteers). It counts as in vivo. The settings on record: healthy human volunteers, oral daily 5, 75, 200 or 400 mg for 14 days.
The subject of series [9] is liver gene expression (lipid metabolism and fatty acid transport genes). In words: Rat CDHFD+NaNO2 NASH model: liver whole transcriptome RNAseq (DEGs). The settings on record: Compound 2 25 mg/kg, Compound 1 3 mg/kg. It counts as in vivo, male Wistar rats. Here is the method: Animal handling: After arrival, the rats were left for a 2-week acclimation period, during which they were accustomed to the animal facility staff and trained on the procedure of oral gavage. […] Rats were then treated with test compounds for an additional 8 weeks while on CDHFD. […] Final Sacrifice: Half of the animals of each treatment group were terminated on day 84. The other half of the animals in each group were terminated on the following day, day 85. On the day of sacrifice the animals were fasted for 2 hours and received a final treatment with the respective test substance. After the final compound treatment, the animals had no more access to food until sacrifice. At 4 hours after the last administration all animals were sacrificed and livers were sampled for further analysis. Sampling and analysis: Small liver pieces were harvested into RNAlater (Thermo Fisher Scientific Dreieich Germany) and stored at −20° C. prior to RNA sequencing (RNAseq) at MedGenome Inc. RNAseq analysis was performed on liver tissue by Illumina sequencing using standard methodologies. […] Alignment was performed using STAR (v2.7.3a) aligner and reads mapping to ribosomal and mitochondrial genome were removed prior to alignment. Raw read counts were estimated using HTSeq (v0.11.1) and normalized using DESeq2 (v2.22.2). Differentially expressed genes (DEGs) were determined using DESeq2 (R Bioconductor package). […]

Series [10] deals with FXR-regulated gene expression in human HuH7 hepatoma cells. In words: cells. The settings on record: Huh-7, 11 h.
Method: EC50 values for FXR-regulated gene expression were determined using a cell-based RNA assay.
A short description of series [11]: Clinical study, Second Study (7 days daily oral dosing). The settings on record: for AUC: human, in vivo, po.
The target of series [12] is T1, MAO-A (Homo sapiens, UniProt P21397).
T1 sequence (P21397 1-527): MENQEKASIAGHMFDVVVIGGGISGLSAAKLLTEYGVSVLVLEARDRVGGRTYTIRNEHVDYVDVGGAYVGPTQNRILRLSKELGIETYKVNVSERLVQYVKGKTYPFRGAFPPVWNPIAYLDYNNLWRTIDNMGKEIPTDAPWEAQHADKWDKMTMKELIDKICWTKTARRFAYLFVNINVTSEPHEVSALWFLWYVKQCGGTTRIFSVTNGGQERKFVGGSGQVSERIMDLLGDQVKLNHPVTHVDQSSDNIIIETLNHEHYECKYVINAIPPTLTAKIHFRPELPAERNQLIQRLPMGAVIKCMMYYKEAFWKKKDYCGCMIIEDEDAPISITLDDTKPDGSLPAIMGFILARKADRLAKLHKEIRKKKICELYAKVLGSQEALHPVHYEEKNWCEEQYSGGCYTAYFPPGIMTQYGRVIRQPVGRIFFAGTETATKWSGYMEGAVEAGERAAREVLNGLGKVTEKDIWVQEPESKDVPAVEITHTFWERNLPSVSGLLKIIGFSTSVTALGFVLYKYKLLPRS
In words: Biochemical activity, MAO-A.

The structures appear in SMILES notation. Read-outs that look alike come from different tables or passages of the source. Marks after values point to notes of the source that are not given here. Where only a bound is given, the exact number is not on record here.

Take `Cn1cc(C(=O)O)c2ccc(N3CCC(OCc4c(-c5c(Cl)cccc5Cl)noc4C4CC4)CC3)cc21` [Compound 1]: the “Hepatic Extraction” value in series [1] came out at 71.0 ± 2.49%; in series [2], 64.4 ± 0.28%. The “In vitro Metabolic CLpred” value in series [1] (well-stirred liver model) stood at 22 ± 0.83 mL/min/kg; in series [2] (well-stirred liver model), 28 ± 0.17 mL/min/kg. This compound also showed a clearance in series [3] (iv, intravenously 1 mg/kg) of 42.5 mL/min/kg. Also, in [3] (iv, intravenously 1 mg/kg, read-out: IV Terminal t1/2 (converted)), the half-life is 2.45 h. Further, the Vd in series [3] (iv, intravenously 1 mg/kg, read-out: Vdss) stood at 1.31 L/kg. For the same compound, in [3] (po, orally 10 mg/kg), the bioavailability turned out to be 21%. Also, the “change in distribution to the liver on co-administration with rifampin” value in [4] was “does not result in a significant change”. In addition, the “metabolism and major elimination pathway” value in series [5] is on record as “metabolized into an acyl glucuronide metabolite prior to biliary excretion”. For the same compound, the peak concentration (Cmax) worked out at 58.8 ± 30.2 ng/mL in series [6] (oral 0.3 mg/kg); 257 ± 124 ng/mL in [6] (oral 1 mg/kg); 709 ± 458 ng/mL in series [6] (oral 5 mg/kg); 257 ± 124 ng/mL in [7] (Day 1); 221 ± 121 ng/mL in series [7] (Day 7). For the same compound, the Tmax in [6] (oral 0.3 mg/kg) is 2.17 ± 1.47 h; in series [6] (oral 1 mg/kg) it was 1.83 ± 1.17 h; in [6] (oral 5 mg/kg) it was 2.25 ± 1.47 h; in series [7] (Day 1) it was 1.83 ± 1.17 h; in series [7] (Day 7), 1.25 ± 0.61 h. Further, the AUC(0-t) in [6] (oral 0.3 mg/kg) is 196 ± 64 ng·h/mL; in [6] (oral 1 mg/kg) it was 1000 ± 419 ng·h/mL; in series [6] (oral 5 mg/kg), 2720 ± 1500 ng·h/mL; in series [7] (Day 1) it was 1000 ± 419 ng·h/mL; in [7] (Day 7), 858 ± 425 ng·h/mL. Also, the “suppression of the pharmacodynamics biomarker 7AC4” value in [7] (1 mg/kg oral, 7 consecutive days) is reported as “sustained suppression”. Besides, the incidences of pruritus entry in [8] is reported as “no incidences of pruritus were observed”. Also, in series [9], the “Ppargc1a differential gene expression relative to vehicle control” value stood at 0.25 log2-fold change. For the same compound, the EC50 was 40 nM in series [10] (read-out: EC50, BSEP Gene induction/HuH7); 40 nM in series [10] (read-out: EC50, FGF-19 Gene Induction/HuH7); 50 nM in series [10] (read-out: EC50, SHP Gene induction/HuH7). Moreover, the Pruritus entry in series [11] (Compound 1 25 mg oral daily for 7 days) is “No”; in series [11] (Compound 1 75 mg oral daily for 7 days), “No”; in series [11] (Compound 1 150 mg oral daily for 7 days), “No”; in [11] (subjects taking the highest doses), “no pruritus was observed”. Besides, the AUC in series [11] (25 mg) stood at 645 ng·h/mL; in [11] (75 mg), 1480 ng·h/mL; in series [11] (150 mg), 2160 ng·h/mL.
In the case of `COC1CCN(c2ncc(OC/C(=C/F)CN)cn2)CC1` [Compound 2], in [12], the IC50 was greater than 50000 nM. Also, the “Ppargc1a differential gene expression relative to vehicle control” value in series [9] is reported as 0.51* log2-fold change.
